Consider two molecules from US12595269B2, “Morpholine-like monoamine releasers” (Solvonis Therapeutics Ireland Holdings Limited, priority 2022, dated 2026).

The assay concerns the target T1, CYP2D6 (Homo sapiens, UniProt P10635).
T1 construct: host or cells: recombinant microsomes
Briefly: CYP450 inhibition, fluorescent probe, recombinant microsomes: CYP2D6. Type of assay: in vitro ADME. The method, then: Methods and Procedure: The study was performed in agreement with previously described procedures to assure data integrity and adherence to GLP standards. Briefly, recombinant human CYP450 isoenzymes were used to metabolize pro-fluorescent probe substrates to fluorescent products. IC50 values determined from the effect of test compounds on the metabolism of these probe substrates were then used to determine inhibitory potency against CYP450 isoforms.
The test system was based on a three-step procedure with a “mix and read” format, where PGP-432,TI reaction and reading were performed at 37° C. […] Fluorescence was measured in kinetic mode (1 read/minutes for 10 minutes), and the fluorescence rate was calculated. […]
Microsomes were added to the buffer prior to the substrate addition. […] For fluorescence measurement, 10 μL/well of the test compounds were transferred from the compound plate to the assay plate using Biomek FX and the appropriate protocol. […]
10 μL/well of the cofactor was then added to the assay plate using the Multidrop before placing the assay plate in the plate reader EnVision to measure fluorescence. […]
Next, 10 μL/well from the compound plate was added and incubated for 10 minutes at 37° C. on a plate shaker, while a mixture of Vivid Substrate and Vivid NADP+ in Vivid CYP450 Reaction Buffer was prepared. […] Regarding data analysis, the inhibition effect is expressed as a percentage. […]

Read-outs that look alike come from different tables or passages of the source.

T1 sequence (P10635 whole entry): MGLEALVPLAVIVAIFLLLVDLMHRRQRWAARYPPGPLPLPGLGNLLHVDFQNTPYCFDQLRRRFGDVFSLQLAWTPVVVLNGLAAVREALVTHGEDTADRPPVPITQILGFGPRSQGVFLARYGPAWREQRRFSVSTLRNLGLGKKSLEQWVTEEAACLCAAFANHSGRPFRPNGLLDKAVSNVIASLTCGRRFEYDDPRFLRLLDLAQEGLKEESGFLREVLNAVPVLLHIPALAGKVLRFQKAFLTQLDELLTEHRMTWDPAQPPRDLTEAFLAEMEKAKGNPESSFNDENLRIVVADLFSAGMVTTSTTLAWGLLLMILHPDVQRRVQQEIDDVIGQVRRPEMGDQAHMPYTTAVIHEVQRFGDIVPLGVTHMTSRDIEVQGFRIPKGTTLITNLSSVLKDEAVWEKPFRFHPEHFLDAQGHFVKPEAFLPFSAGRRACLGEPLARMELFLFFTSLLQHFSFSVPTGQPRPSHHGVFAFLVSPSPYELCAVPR

In the case of `Clc1ccc(C23CNC(CO2)C3)cc1Cl` (centres unmarked) [522A, 1-(3,4-dichlorophenyl)-2-oxa-5-azabicyclo[2.2.1]heptane], the half-inhibitory concentration (IC50) (recombinant human CYP2D6, read-out: CYP450 Inhibition (IC50), CYP2D6) was found to be 2.87 µM. On to `CNC(C)Cc1ccc2c(c1)OCO2` (centres unmarked) [MDMA, reference compound], for which the IC50 amounted to 1.6 µM.

By IC50 is commonly meant the concentration that inhibits the measured activity by half.
